Assay results from patent publication US6221865A, “Inhibitors of protein isoprenyl transferases” (priority 1998, dated 2001).
Counter-ions that a name gives are not always drawn.

Target: T1, protein farnesyltransferase (Rattus norvegicus, UniProt Q02293+Q04631)
T1 construct: The enzyme is purified according to Reiss, Y., et al., Cell, 62: 81-88 (1990), utilizing steps one through three; from tissue; host or cells: rat brain
Assay: Inhibition of farnesyltransferase (scintillation proximity assay, rat brain enzyme, biotin-K Ras B fragment substrate)
Assay type: biochemical
Conditions: 1 × 10^-5 M (Table 1)
Method in brief: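 Enzyme from rat brain, partly purified (steps one to three), assayed by SPA kit using 0.1 mM final biotin-K Ras B peptide as prenyl acceptor rather than biotin-lamin. Activity given as percent inhibition.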

T1 sequence (Q02293 whole entry, one chain of several): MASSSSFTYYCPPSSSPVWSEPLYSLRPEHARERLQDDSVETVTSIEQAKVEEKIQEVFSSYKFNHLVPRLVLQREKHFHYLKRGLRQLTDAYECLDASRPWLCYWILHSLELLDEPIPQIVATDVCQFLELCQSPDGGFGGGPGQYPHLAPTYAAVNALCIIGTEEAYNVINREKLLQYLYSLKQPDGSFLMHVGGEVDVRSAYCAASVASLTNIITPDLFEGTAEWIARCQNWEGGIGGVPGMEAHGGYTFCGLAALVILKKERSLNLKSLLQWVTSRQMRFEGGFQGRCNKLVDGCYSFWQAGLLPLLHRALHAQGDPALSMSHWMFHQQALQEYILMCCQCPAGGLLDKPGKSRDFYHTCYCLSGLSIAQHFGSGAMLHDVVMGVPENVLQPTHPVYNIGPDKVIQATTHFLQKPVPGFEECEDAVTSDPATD

Row | Compound | % inhibition of farnesyltransferase at 1 × 10^-5 M
1 | COc1ccc(NCc2ccc(C(=O)N[C@@H](CCSC)C(=O)O)c(-c3ccccc3)c2)cc1 [Example 690] | 61%
2 | CSCC[C@H](NC(=O)c1ccc(CNc2cccc(CC(=O)O)c2)cc1-c1ccccc1)C(=O)O [Example 684] | 48%

Same assay, conditions: 1 × 10^-6 M (Table 2)

Row | Compound | % inhibition of farnesyltransferase at 1 × 10^-6 M
3 | CSCC[C@H](NC(=O)c1ccc(CN[C@H](C)CC2CCCCC2)cc1-c1ccccc1C)C(=O)O [Example 613] | 97%
4 | CSCC[C@H](NC(=O)c1ccc(COCCCc2ccccc2)cc1-c1ccccc1C)C(=O)[O-].[Li+] [Example 595] | 97%
5 | CSCC[C@H](NC(=O)c1ccc(COCc2ccccc2)cc1-c1ccccc1)C(=O)O [Example 575] | 70%
6 | CSCC[C@H](NC(=O)c1ccc(CSCc2ccccc2C)cc1-c1ccccc1C)C(=O)[O-].[Li+] [Example 557] | 93%

Now from value to compound:

Row | % inhibition of farnesyltransferase at 1 × 10^-6 M | Compound
7 | 26% | CSCC[C@H](NC(=O)c1ccc(NC(=O)OCCCl)cc1-c1ccccc1)C(=O)O [Example 979]
8 | 69% | CSCC[C@H](NC(=O)c1ccc(CNCc2ccccc2)cc1-c1ccccc1)C(=O)O.Cl [Example 936]
9 | 84% | CSCC[C@H](NC(=O)c1ccc(CSc2nc(O)cc(Cc3ccccc3)n2)cc1-c1ccccc1C)C(=O)O [Example 744]
10 | 39% | CSCC[C@H](NC(=O)c1ccc(CNc2ccc(N3CCCCC3)cc2)cc1-c1ccccc1)C(=O)O [Example 697]

Same assay, conditions: 1 × 10^-7 M (Table 3)

Row | Compound | % inhibition of farnesyltransferase at 1 × 10^-7 M
11 | CSCC[C@H](NC(=O)c1ccc(COCc2ccc(-c3ccc(C(F)(F)F)cc3)o2)cc1-c1ccccc1C)C(=O)[O-].[Li+] [Example 445] | 94%
12 | COc1ccccc1COCc1ccc(C(=O)N[C@@H](CCSC)C(=O)[O-])c(-c2ccccc2C)c1.[Li+] [Example 931] | 98%
13 | CSCC[C@H](NC(=O)c1ccc(COCCCCC2CCCCC2)cc1-c1ccccc1C)C(=O)O [Example 600] | 93%

Results, then the compound that gave them:

Row | % inhibition of farnesyltransferase at 1 × 10^-7 M | Compound
14 | 96% | CSCC[C@H](NC(=O)c1ccc(CN[C@H](CSc2ccccc2)CC2CCCCC2)cc1-c1ccccc1C)C(=O)O [Example 623]
15 | 89% | CSCC[C@H](NC(=O)c1ccc(CN[C@@H](CO)CC2CCCCC2)cc1-c1ccccc1C)C(=O)O [Example 618]

Same assay, conditions: 1 × 10^-8 M (Table 4)

Row | Compound | % inhibition of farnesyltransferase at 1 × 10^-8 M
16 | CSCC[C@H](NC(=O)c1ccc(CN(CCc2ccccc2)c2cncnc2)cc1-c1ccccc1C)C(=O)O [Example 518] | 90%
17 | CCSC[C@H](CC1CCCCC1)OCc1ccc(C(=O)N[C@@H](CCSC)C(=O)O)c(-c2ccccc2C)c1 [Example 606] | 93%
18 | COc1cccc(COCc2ccc(C(=O)N[C@@H](CCSC)C(=O)[O-])c(-c3ccccc3C)c2)c1.[Li+] [Example 932] | 60%

Further lines, results first:

Row | % inhibition of farnesyltransferase at 1 × 10^-8 M | Compound
19 | 92% | CC[C@H](CC1CCCCC1)NCc1ccc(C(=O)N[C@@H](CCSC)C(=O)O)c(-c2ccccc2C)c1 [Example 614]
20 | 80% | CCCCS(=O)(=O)N(Cc1ccc(C(=O)N[C@@H](CCSC)C(=O)O)c(-c2ccccc2C)c1)CC1CCCCC1 [Example 996]
21 | 84% | CSCC[C@H](NC(=O)c1ccc(CN(CCC2CCCCC2)C(=O)c2ccccc2)cc1-c1ccccc1C)C(=O)O [Example 762]
22 | 95% | C=C[C@H](CC1CCCCC1)NCc1ccc(C(=O)N[C@@H](CCSC)C(=O)O)c(-c2ccccc2C)c1 [Example 619]

Same assay, conditions: read-out: % inhibition at 0.01 μM (**); Table 6, ** = 0.01 μM (footnote); title prints 0.01 mM

Row | Compound | inhibition at 0.01 µM
23 | CSCC[C@H](NC(=O)c1ccc(Cc2nnnn2Cc2ccccc2)cc1-c1ccccc1C)C(=O)O [Example 1099, N-[4-(1-benzyltetrazol-5-ylmethyl)-2-(2-methylphenyl)benzoyl]methionine] | 87%
24 | CSCC[C@H](NC(=O)c1ccc(CN2CCC[C@H]2COC2CCCCC2)cc1-c1ccccc1C)C(=O)O [Example 1116, N-[4-(2(S)-cyclohexyloxymethylpyrrolidin-1-ylmethyl)-2-(2-methylphenyl)benzoyl]methionine] | 91%
25 | CSCC[C@H](NC(=O)c1ccc(CN2CCSC[C@H]2COCC2CCCCC2)cc1-c1ccccc1C)C(=O)O [Example 1111, N-[4-(3(R)-cyclohexylmethoxymethylthiomorpholin-4-ylmethyl)-2-(2-methylphenyl)benzoyl]methionine] | 63%

Same assay, conditions: read-out: % inhibition at 0.1 μM (*); Table 6, * = 0.1 μM (footnote); title prints 0.1 mM

Row | Compound | inhibition at 0.1 µM
26 | CSCC[C@H](NC(=O)c1ccc(CN2CCC[C@H]2CN(C)C2CCCCC2)cc1-c1ccccc1C)C(=O)O [Example 1127] | 90%
27 | CSCC[C@H](NC(=O)c1ccc(CN2CCC[C@H]2COc2cc(F)cc(F)c2)cc1-c1ccccc1C)C(=O)O [Example 1115, N-[4-(2(S)-(3,5-difluorolphenoxy)methylpyffolidin-1-ylmethyl)-2-(2-methylphenyl)benzoyl]methionine] | 94%
28 | CCSCC(CCC1CCCCC1)Cc1ccc(C(=O)N[C@@H](CCSC)C(=O)O)c(-c2ccccc2C)c1 (some centres unmarked) [Example 1300, N-[4-(2-(2-Cyclohexylethyl)-1-ethylthioprop-3-yl)-2-(2-methylphenyl)benzoyl]methionine Lithium Salt] | 97%

Same assay, conditions: read-out: % inhibition of farnesyltransferase at 1 × 10^-6 M; 1 × 10^-6 M (Table 2)

Row | Compound | inhibition at 1 µM
29 | CSCC[C@H](NC(=O)c1ccc(CN(C)C(CC2CCCCC2)C(=O)N2CCCCC2)cc1-c1ccccc1C)C(=O)O (some centres unmarked) [Example 301] | 98%
30 | CSCC[C@H](NC(=O)c1ccc(CN(C(C)C)C(C)(C)CC2CCCCC2)cc1-c1ccccc1C)C(=O)O [Example 318] | 98%
31 | Cc1ccccc1-c1cc(CN(C(C)C)C2(Cc3ccccc3)CC2)ccc1C(=O)N[C@@H](CCS(C)(=O)=O)C(=O)O [Example 327] | 97%
32 | Cc1ccccc1-c1cc(CN(C(C)C)C(C)(C)Cc2ccccc2)ccc1C(=O)N[C@@H](CCS(C)(=O)=O)C(=O)O [Example 321] | 90%
33 | CSCC[C@H](NC(=O)c1ccc(/C=C/CC(O)c2ccc3ccccc3c2)cc1-c1ccccc1C)C(=O)O (some centres unmarked) [Example 474, N-[4-(4-naphth-2-ylbut-4-ol-1-enyl)-2-(2-methylphenyl)benzoyl]methionine] | 92%
34 | Cc1ccccc1-c1cc(CNC(C)(C)Cc2ccccc2)ccc1C(=O)N[C@@H](CCS(C)(=O)=O)C(=O)O [Example 311] | 97%

Now from value to compound:

Row | inhibition at 1 µM | Compound
35 | 53% | CSCC[C@H](NC(=O)c1ccc(/C=C/c2ccccc2)cc1-c1ccccc1C)C(=O)O [Example 791, N-[4-(2-phenylethen-1-yl)-2-(2-methylphenyl)benzoyl]methionine]
36 | 71% | CSCC[C@H](NC(=O)c1ccc(CN2CCN(c3ccccc3)CC2)cc1-c1ccccc1C)C(=O)O [Example 867, N-[4-(4-phenylpiperazin-1-ylmethyl)-2-(2-methylphenyl)benzoyl]methionine]

Same assay, conditions: read-out: % inhibition of farnesyltransferase at 1 × 10^-7 M; 1 × 10^-7 M (Table 3)

Row | Compound | inhibition at 0.1 µM
37 | CSCC[C@H](NC(=O)c1ccc(CCc2ccccc2Oc2ccccc2)cc1-c1ccccc1C)C(=O)O [Example 455, N-[4-(2-(2-phenoxyphenyl)ethyl)-2-(2-methylphenyl)benzoyl]methionine lithium salt] | 83%

Same assay, conditions: read-out: % inhibition of farnesyltransferase at 1 × 10^-8 M; 1 × 10^-8 M (Table 4)

Row | Compound | inhibition at 0.01 µM
38 | CSCC[C@H](NC(=O)c1ccc(CCc2ccc(Oc3ccc(Cl)cc3)cc2)cc1-c1ccccc1C)C(=O)O [Example 860, N-[4-(2-(4-(4-chlorophenoxy)phenyl)ethyl)-2-(2-methylphenyl)benzoyl]methionine] | 85%
